{
  "source": "patent US20250288584A1",
  "about": "“COMBINATIONS COMPRISING POSITIVE ALLOSTERIC MODULATORS OR ORTHOSTERIC AGONISTS OF METABOTROPIC GLUTAMATERGIC RECEPTOR SUBTYPE 2 AND THEIR USE” (JANSSEN PHARMACEUTICA NV, priority 2014, published 2025)",
  "key": {"mGlu1a": {"molecular_target": "mGlu1a (Homo sapiens, UniProt Q13255)", "sequence (Q13255 19-1194)": "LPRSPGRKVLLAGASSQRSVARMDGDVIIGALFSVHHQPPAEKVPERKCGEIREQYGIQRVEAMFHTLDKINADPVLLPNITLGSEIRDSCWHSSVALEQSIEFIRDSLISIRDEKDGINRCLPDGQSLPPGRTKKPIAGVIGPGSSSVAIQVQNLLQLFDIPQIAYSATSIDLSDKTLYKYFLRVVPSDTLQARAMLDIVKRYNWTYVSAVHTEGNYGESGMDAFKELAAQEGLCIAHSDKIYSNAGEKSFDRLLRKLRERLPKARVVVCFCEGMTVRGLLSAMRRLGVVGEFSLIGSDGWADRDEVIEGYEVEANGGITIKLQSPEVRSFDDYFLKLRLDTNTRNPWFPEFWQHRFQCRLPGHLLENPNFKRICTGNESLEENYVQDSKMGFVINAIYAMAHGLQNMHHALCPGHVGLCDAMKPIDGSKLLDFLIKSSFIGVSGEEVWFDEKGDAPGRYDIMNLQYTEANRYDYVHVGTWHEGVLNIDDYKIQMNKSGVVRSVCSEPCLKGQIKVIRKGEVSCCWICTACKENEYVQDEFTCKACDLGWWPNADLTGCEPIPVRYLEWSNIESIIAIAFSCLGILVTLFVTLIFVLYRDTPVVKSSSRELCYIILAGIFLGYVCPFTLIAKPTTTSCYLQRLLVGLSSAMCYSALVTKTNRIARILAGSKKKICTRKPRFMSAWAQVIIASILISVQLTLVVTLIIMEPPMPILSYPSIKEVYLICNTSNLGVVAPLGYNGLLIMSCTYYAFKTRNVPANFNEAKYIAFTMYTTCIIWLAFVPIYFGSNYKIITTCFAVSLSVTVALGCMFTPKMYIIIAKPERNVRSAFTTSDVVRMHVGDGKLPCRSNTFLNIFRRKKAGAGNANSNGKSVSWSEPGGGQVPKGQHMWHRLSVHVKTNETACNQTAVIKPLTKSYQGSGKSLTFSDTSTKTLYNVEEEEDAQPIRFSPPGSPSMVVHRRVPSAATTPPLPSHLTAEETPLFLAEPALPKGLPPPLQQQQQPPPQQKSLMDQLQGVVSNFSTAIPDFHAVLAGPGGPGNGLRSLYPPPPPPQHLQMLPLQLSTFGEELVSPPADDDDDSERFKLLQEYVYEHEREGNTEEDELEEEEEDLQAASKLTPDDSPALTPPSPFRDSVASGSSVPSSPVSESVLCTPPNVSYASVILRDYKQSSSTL", "settings": "cited from earlier work"}, "mGlu5a": {"molecular_target": "mGlu5a (Homo sapiens, UniProt P41594)", "sequence (P41594 21-1180 isoform P41594-2)": "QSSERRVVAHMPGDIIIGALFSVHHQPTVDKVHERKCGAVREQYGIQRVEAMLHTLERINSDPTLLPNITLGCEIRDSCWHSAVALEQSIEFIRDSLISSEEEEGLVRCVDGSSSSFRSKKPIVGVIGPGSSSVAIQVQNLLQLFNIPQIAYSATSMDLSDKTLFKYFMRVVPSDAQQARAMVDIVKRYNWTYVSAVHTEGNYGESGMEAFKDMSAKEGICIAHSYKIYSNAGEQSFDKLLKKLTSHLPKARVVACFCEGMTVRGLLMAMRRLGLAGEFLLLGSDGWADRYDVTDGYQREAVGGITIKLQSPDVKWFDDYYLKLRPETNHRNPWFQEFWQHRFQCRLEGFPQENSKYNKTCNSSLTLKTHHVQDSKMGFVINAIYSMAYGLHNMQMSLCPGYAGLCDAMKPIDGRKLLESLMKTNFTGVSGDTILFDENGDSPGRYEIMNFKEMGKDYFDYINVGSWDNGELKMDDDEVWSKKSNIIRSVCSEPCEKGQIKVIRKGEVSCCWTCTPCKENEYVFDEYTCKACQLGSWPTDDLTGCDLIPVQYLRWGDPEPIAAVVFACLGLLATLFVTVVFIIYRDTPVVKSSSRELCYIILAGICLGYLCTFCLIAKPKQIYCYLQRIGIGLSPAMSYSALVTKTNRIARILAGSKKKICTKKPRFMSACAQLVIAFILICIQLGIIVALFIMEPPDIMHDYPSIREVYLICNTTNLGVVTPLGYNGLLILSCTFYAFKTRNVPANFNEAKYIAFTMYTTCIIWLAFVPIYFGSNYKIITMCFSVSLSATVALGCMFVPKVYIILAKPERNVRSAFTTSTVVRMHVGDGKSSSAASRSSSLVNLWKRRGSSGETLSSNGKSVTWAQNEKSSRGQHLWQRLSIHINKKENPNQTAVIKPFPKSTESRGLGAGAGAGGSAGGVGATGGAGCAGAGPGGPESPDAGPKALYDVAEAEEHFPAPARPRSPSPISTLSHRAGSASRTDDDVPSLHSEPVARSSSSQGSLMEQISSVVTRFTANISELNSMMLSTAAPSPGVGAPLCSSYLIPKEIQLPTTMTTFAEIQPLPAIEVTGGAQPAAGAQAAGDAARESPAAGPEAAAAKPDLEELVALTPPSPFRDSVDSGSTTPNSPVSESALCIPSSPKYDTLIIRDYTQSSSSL", "settings": "cited from earlier work"}, "[1]": {"assay": "Minimal motor impairment (rotarod)", "format": "in vivo, mice", "settings": "for # rotarod motor impairment/# tested: 0.5 h", "protocol": "Acute MMI was assessed by a combination of direct observations of the animal for overt symptoms of the animal's neurological or muscular function. In mice, the rotarod procedure was used to disclose minimal muscular or neurological impairment. When a mouse is placed on a rod that rotates at a speed of 6 rpm, the animal can maintain its equilibrium for long periods of time. The animal was considered toxic if it fell off this rotating rod three times during a 1 min period.\nIn the determination of an ED50 or TD50 for each test compound, the first dose administered is usually the same dose as that used in a successful TPE determination.\nIf the initial dose employed was effective or toxic in more than 50% of animals, the next dose would be one-half that of the initial dose; if the initial dose was effective or toxic in less than 50% of animals, the following dose would be twice that of the initial dose. Third and fourth doses were selected to produce an evenly spaced dose response line. There should be a minimum of 4 points either including or lying between 0 and 100%."}, "[2]": {"tested_on": "6 Hz (32 mA) psychomotor seizures", "assay": "6 Hz psychomotor seizure test, 32 mA (incl. TPE determination)", "format": "in vivo, mice", "settings": "for # protected/# tested: 0.5 h", "protocol": "Test compounds were administered using an optimal fluid volume to body fluid ratio. Test compounds were administered to mice in a volume of 0.01 mL/g of body weight (White H. S., et al., General Principles: Experimental selection, quantification, and evaluation of antiepileptic drugs, in Antiepileptic Drugs, Fourth Edition, […], and B. S. Meldrum, Editors. 1995, Raven Press, Ltd.: New York, pp. 99-110). For subcutaneous (s.c.) administration, the test compounds were administered into a loose fold of skin along the back of the animal except compound 6-b, which was administered orally (p.o). […] The animals were maintained on an adequate diet (Prolab RMH 3000) and allowed free access to food and water, except during the short time they were removed from their cage for testing. Animals newly received in the laboratory were allowed sufficient time to correct for possible food and water restriction incurred during transit before being employed in testing. All mice were housed in plastic cages in specially constructed rooms with controlled humidity, exchange of air and controlled lighting (12 hours on-12 hours off). The animals were housed, fed, and handled in a manner consistent with the recommendations in the National Council Publication, “Guide for the Care and Use of Laboratory Animals”. In the determination of an ED50 or TD50 for each test compound, the first dose administered is usually the same dose as that used in a successful TPE determination. […] Third and fourth doses were selected to produce an evenly spaced dose response line. […] TPE was determined using the 6 Hz (32 mA) assay. […] The 6 Hz seizure test is used as a model of pharmacoresistant limbic seizures. […] Focal seizures were induced in mice via corneal stimulation (6 Hz, 0.2 msec rectangular pulse, 3 sec duration; Barton et al. 2001). Mice were tested at either 32 mA or 44 mA. […] The seizures that arise from corneal stimulation in this assay are characterized by a minimal clonic phase followed by stereotyped automatistic behaviors including stun, forelimb clonus, twitching of the vibrissae, and Straub-tail. Animals not displaying these behaviors were considered protected."}, "corneal kindled seizures": {"tested_on": "corneal kindled seizures", "assay": "Mouse corneal kindling model", "format": "in vivo, mice", "settings": "100 mg/kg s.c.; Racine score 0-5", "protocol": "After the mice reached a stable kindled state, the test compound or vehicle was administered and, at the previously determined TPE, each animal was given the electrical stimulus indicated above. […] One dose of LEV and two doses of Co."}, "[3]": {"tested_on": "6 Hz (44 mA) psychomotor seizures", "assay": "6 Hz psychomotor seizure test, 44 mA (alone, combination with LEV, isobolographic study)", "format": "in vivo, mice", "outline": "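Mice dosed s.c. or p.o. at 0.01 mL/g, alone or with LEV at fixed dose ratios proportional to ED50 values. Focal seizures induced by corneal stimulation (6 Hz, 0.2 msec pulse, 3 sec, 44 mA); animals without stun, forelimb clonus, vibrissae twitch or Straub-tail were counted as protected. ED50 values derived, with combinations analysed isobolographically.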"}},
  "data": [
    {"compound": "N[C@@]1(C(=O)O)CS(=O)(=O)[C@H]2[C@H](C(=O)O)[C@H]21", "note": "[LY-404039, reference compound]", "values": [
      {"measurement": "activity at mGlu1a", "setting": "mGlu1a", "value": "no activity"},
      {"measurement": "activity at mGlu5a", "setting": "mGlu5a", "value": "no activity"},
      {"measurement": "# rotarod motor impairment/# tested", "setting": "[1]; 5 mg/kg s.c., 32 mA group", "value": "1/16"},
      {"measurement": "# rotarod motor impairment/# tested", "setting": "[1]; 5 mg/kg s.c., 44 mA group", "value": "0/16"},
      {"measurement": "# rotarod motor impairment/# tested", "setting": "[1]; 10 mg/kg s.c., 32 mA group", "value": "0/8"},
      {"measurement": "# rotarod motor impairment/# tested", "setting": "[1]; 10 mg/kg s.c., 44 mA group", "value": "1/8"},
      {"measurement": "# rotarod motor impairment/# tested", "setting": "[1]; 20 mg/kg s.c., 32 mA group", "value": "1/8"},
      {"measurement": "# rotarod motor impairment/# tested", "setting": "[1]; 20 mg/kg s.c., 44 mA group", "value": "1/8"},
      {"measurement": "# rotarod motor impairment/# tested", "setting": "[1]; 40 mg/kg s.c., 32 mA group", "value": "1/8"},
      {"measurement": "# rotarod motor impairment/# tested", "setting": "[1]; 40 mg/kg s.c., 44 mA group", "value": "2/8"},
      {"measurement": "mice with impairment out of total", "setting": "[1]; 40 mg/kg s.c., 32 mA and 44 mA groups combined", "value": "^a40 mg/kg-3 out of 16 total (32 mA and 44 mA combined) with impairment."},
      {"measurement": "TD50 at 0.5 h", "setting": "[1]; mouse, in vivo, sc, rotarod", "value": "> 40", "unit": "mg/kg"},
      {"measurement": "# protected/# tested", "setting": "[2]; 5 mg/kg s.c.", "value": "1/16"},
      {"measurement": "# protected/# tested", "setting": "[2]; 10 mg/kg s.c.", "value": "5/8"},
      {"measurement": "# protected/# tested", "setting": "[2]; 20 mg/kg s.c.", "value": "6/8"},
      {"measurement": "# protected/# tested", "setting": "[2]; 40 mg/kg s.c.", "value": "8/8"},
      {"measurement": "ED50", "setting": "[2]; Mus musculus, sc, at TPE, read-out: ED50 (95% CI) 32 mA", "value": 10.2, "unit": "mg/kg"},
      {"measurement": "activity in the 6 Hz 32 mA test", "setting": "[2]; result in words", "value": "activity in both 6 Hz tests was seen"},
      {"measurement": "ED50 (95% CI) 32 mA", "setting": "[2]; s.c., at TPE", "value": "ED50 (95% CI): 10.9 mg/kg (7.8 to 15.9)"},
      {"measurement": "Seizure score (dose) Corneal kindling", "setting": "corneal kindled seizures", "value": 3.1},
      {"measurement": "activity when administered alone", "setting": "[3]; 5 mg/kg s.c.", "value": "^bLY404039 (s.c.) 5 mg/kg tested in combination with LEV (i.p.); LY404039 5 mg/kg was not active when administered alone."},
      {"measurement": "responders at 5 mg/kg", "setting": "[3]; Mus musculus, sc, 0.5 h, 5 mg/kg s.c., 0.5 h, read-out: # protected/# tested", "value": 0, "unit": "%"},
      {"measurement": "responders at 10 mg/kg", "setting": "[3]; Mus musculus, sc, 0.5 h, 10 mg/kg s.c., 0.5 h, read-out: # protected/# tested (converted)", "value": 37.5, "unit": "%"},
      {"measurement": "responders at 20 mg/kg", "setting": "[3]; Mus musculus, sc, 0.5 h, 20 mg/kg s.c., 0.5 h, read-out: # protected/# tested (converted)", "value": 87.5, "unit": "%"},
      {"measurement": "responders at 40 mg/kg", "setting": "[3]; Mus musculus, sc, 0.5 h, 40 mg/kg s.c., 0.5 h, read-out: # protected/# tested (converted)", "value": 87.5, "unit": "%"},
      {"measurement": "ED50", "setting": "[3]; Mus musculus, sc, at TPE, compound alone, read-out: ED50 (95% CI) 44 mA", "value": 14.1, "unit": "mg/kg"},
      {"measurement": "activity in the 6 Hz 44 mA test", "setting": "[3]; result in words", "value": "activity in both 6 Hz tests was seen"},
      {"measurement": "pharmacodynamic interaction with LEV in the 6 Hz model", "setting": "[3]; result in words", "value": "synergy was seen"}
    ]}
  ]
}
